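1) Cells in 96-well plates. 2) Compound, 48 h, 5 concentrations. 3) Linear interpolation between surrounding doses. 4) Unreached endpoint = highest concentration. The concentration for 50% growth inhibition is given as GI50. The concentration for full growth arrest is given as TGI.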
Assays:
Assay in all cases: NCI tumour cell line growth inhibition, 48 h
HL-60(TB) leukemia = system: HL-60(TB) leukemia
NCI-H226 lung = system: NCI-H226 lung
HOP-62 NSCLC = system: HOP-62 NSCLC
HCC-2998 colon = system: HCC-2998 colon
A498 renal = system: A498 renal
COLO 205 colon = system: COLO 205 colon
SW-620 colon = system: SW-620 colon
MALME-3M melanoma = system: MALME-3M melanoma
IGROV1 ovarian = system: IGROV1 ovarian
RPMI-8226 leukemia = system: RPMI-8226 leukemia
K-562 leukemia = system: K-562 leukemia
ACHN renal = system: ACHN renal
DU-145 prostate = system: DU-145 prostate
MDA-MB-435 = system: MDA-MB-435
U251 CNS = system: U251 CNS
SR leukemia = system: SR leukemia
PC-3 prostate = system: PC-3 prostate
SNB-75 CNS = system: SNB-75 CNS
HS 578T breast = system: HS 578T breast
MCF7 breast = system: MCF7 breast
HOP-92 NSCLC = system: HOP-92 NSCLC
CAKI-1 renal = system: CAKI-1 renal
MOLT-4 leukemia = system: MOLT-4 leukemia
OVCAR-8 ovarian = system: OVCAR-8 ovarian
RXF 393 renal = system: RXF 393 renal
SF-268 CNS = system: SF-268 CNS
SN12C renal = system: SN12C renal
OVCAR-5 ovarian = system: OVCAR-5 ovarian
UO-31 renal = system: UO-31 renal
MDA-MB-231 breast = system: MDA-MB-231 breast
T-47D breast = system: T-47D breast
NCI/ADR-RES ovarian = system: NCI/ADR-RES ovarian
M14 melanoma = system: M14 melanoma
LOX IMVI melanoma = system: LOX IMVI melanoma
SF-295 CNS = system: SF-295 CNS
BT-549 breast = system: BT-549 breast
OVCAR-4 ovarian = system: OVCAR-4 ovarian
SK-MEL-28 melanoma = system: SK-MEL-28 melanoma
SNB-19 CNS = system: SNB-19 CNS
HT29 colon = system: HT29 colon
SK-MEL-5 melanoma = system: SK-MEL-5 melanoma
SF-539 CNS = system: SF-539 CNS
NCI-H23 lung = system: NCI-H23 lung
NCI-H460 lung = system: NCI-H460 lung
HCT-116 colon = system: HCT-116 colon
786-0 renal = system: 786-0 renal
SK-OV-3 ovarian = system: SK-OV-3 ovarian
HCT-15 colon = system: HCT-15 colon
OVCAR-3 ovarian = system: OVCAR-3 ovarian
KM12 colon = system: KM12 colon
TK-10 renal = system: TK-10 renal
UACC-62 melanoma = system: UACC-62 melanoma
SK-MEL-2 melanoma = system: SK-MEL-2 melanoma

`CCCCc1ccc(NS(=O)(=O)c2cc3c4c(c2)CCN4C(=O)CC3)cc1` was tested. Which GI50 (HL-60(TB) leukemia) did it give?
Its GI50 is 12.2 µM.

What about the TGI (HL-60(TB) leukemia) of the same compound?
Its TGI is 58.3 µM.

What about the GI50 (NCI-H226 lung) of the same compound?
The GI50 was 15.9 µM.

And the TGI (NCI-H226 lung)?
The TGI was greater than 100 µM.

And the GI50 (HOP-62 NSCLC)?
The GI50 was 28.5 µM.

And the TGI (HOP-62 NSCLC)?
The TGI was 94.1 µM.

And the GI50 (HCC-2998 colon)?
Its GI50 is 89.5 µM.

And the TGI (HCC-2998 colon)?
The TGI was greater than 100 µM.

And the GI50 (A498 renal)?
The GI50 was 5.82 µM.

And the TGI (A498 renal)?
Its TGI is 37.5 µM.

What about the GI50 (COLO 205 colon) of the same compound?
Its GI50 is 25.1 µM.

What about the TGI (COLO 205 colon) of the same compound?
Its TGI is 87.2 µM.

What about the GI50 (SW-620 colon) of the same compound?
The GI50 was 33.5 µM.

What about the TGI (SW-620 colon) of the same compound?
The TGI was greater than 100 µM.

And the GI50 (MALME-3M melanoma)?
Its GI50 is 35.4 µM.

And the TGI (MALME-3M melanoma)?
Its TGI is greater than 100 µM.

What about the GI50 (IGROV1 ovarian) of the same compound?
Its GI50 is 44.4 µM.

What about the TGI (IGROV1 ovarian) of the same compound?
Its TGI is greater than 100 µM.

What about the GI50 (RPMI-8226 leukemia) of the same compound?
Its GI50 is 7.79 µM.

What about the TGI (RPMI-8226 leukemia) of the same compound?
The TGI was 57 µM.

And the GI50 (K-562 leukemia)?
The GI50 was 9.3 µM.

And the TGI (K-562 leukemia)?
Its TGI is greater than 100 µM.

And the GI50 (ACHN renal)?
Its GI50 is 15.7 µM.

And the TGI (ACHN renal)?
The TGI was greater than 100 µM.

And the GI50 (DU-145 prostate)?
Its GI50 is 35.5 µM.

What about the TGI (DU-145 prostate) of the same compound?
Its TGI is greater than 100 µM.

And the GI50 (MDA-MB-435)?
The GI50 was 16.9 µM.

What about the TGI (MDA-MB-435) of the same compound?
Its TGI is greater than 100 µM.

What about the GI50 (U251 CNS) of the same compound?
Its GI50 is 23.5 µM.

And the TGI (U251 CNS)?
The TGI was greater than 100 µM.

And the GI50 (SR leukemia)?
The GI50 was 7.35 µM.

And the TGI (SR leukemia)?
Its TGI is greater than 100 µM.

What about the GI50 (PC-3 prostate) of the same compound?
The GI50 was 11.7 µM.

And the TGI (PC-3 prostate)?
Its TGI is greater than 100 µM.

And the GI50 (SNB-75 CNS)?
Its GI50 is 18.4 µM.

What about the TGI (SNB-75 CNS) of the same compound?
Its TGI is 78 µM.

And the GI50 (HS 578T breast)?
Its GI50 is 15.2 µM.

And the TGI (HS 578T breast)?
The TGI was 61.2 µM.

And the GI50 (MCF7 breast)?
Its GI50 is 9.94 µM.

What about the TGI (MCF7 breast) of the same compound?
The TGI was greater than 100 µM.

What about the GI50 (HOP-92 NSCLC) of the same compound?
The GI50 was 9.27 µM.

What about the TGI (HOP-92 NSCLC) of the same compound?
Its TGI is 36.4 µM.

What about the GI50 (CAKI-1 renal) of the same compound?
Its GI50 is 8.49 µM.

What about the TGI (CAKI-1 renal) of the same compound?
The TGI was 78.5 µM.

And the GI50 (MOLT-4 leukemia)?
The GI50 was 11.2 µM.

And the TGI (MOLT-4 leukemia)?
Its TGI is 77.6 µM.

And the GI50 (OVCAR-8 ovarian)?
The GI50 was 19.7 µM.

What about the TGI (OVCAR-8 ovarian) of the same compound?
Its TGI is greater than 100 µM.

And the GI50 (RXF 393 renal)?
Its GI50 is 16.1 µM.

And the TGI (RXF 393 renal)?
Its TGI is 62.5 µM.

And the GI50 (SF-268 CNS)?
The GI50 was 30.3 µM.

And the TGI (SF-268 CNS)?
The TGI was greater than 100 µM.

What about the GI50 (SN12C renal) of the same compound?
The GI50 was 34.6 µM.

And the TGI (SN12C renal)?
Its TGI is greater than 100 µM.

And the GI50 (OVCAR-5 ovarian)?
The GI50 was 35.8 µM.

What about the TGI (OVCAR-5 ovarian) of the same compound?
Its TGI is greater than 100 µM.

What about the GI50 (UO-31 renal) of the same compound?
The GI50 was 12.8 µM.

What about the TGI (UO-31 renal) of the same compound?
The TGI was greater than 100 µM.

And the GI50 (MDA-MB-231 breast)?
Its GI50 is 16.1 µM.

And the TGI (MDA-MB-231 breast)?
Its TGI is greater than 100 µM.

And the GI50 (T-47D breast)?
Its GI50 is 5.48 µM.

And the TGI (T-47D breast)?
The TGI was 72.1 µM.

What about the GI50 (NCI/ADR-RES ovarian) of the same compound?
The GI50 was 7.97 µM.

And the TGI (NCI/ADR-RES ovarian)?
The TGI was greater than 100 µM.

What about the GI50 (M14 melanoma) of the same compound?
Its GI50 is 19.8 µM.

What about the TGI (M14 melanoma) of the same compound?
Its TGI is greater than 100 µM.

What about the GI50 (LOX IMVI melanoma) of the same compound?
Its GI50 is 35.1 µM.

And the TGI (LOX IMVI melanoma)?
The TGI was greater than 100 µM.

And the GI50 (SF-295 CNS)?
The GI50 was 13.4 µM.

What about the TGI (SF-295 CNS) of the same compound?
The TGI was 93.8 µM.

What about the GI50 (BT-549 breast) of the same compound?
The GI50 was 18 µM.

And the TGI (BT-549 breast)?
The TGI was greater than 100 µM.

What about the GI50 (OVCAR-4 ovarian) of the same compound?
Its GI50 is 25.1 µM.

What about the TGI (OVCAR-4 ovarian) of the same compound?
Its TGI is greater than 100 µM.

What about the GI50 (SK-MEL-28 melanoma) of the same compound?
Its GI50 is 39.3 µM.

And the TGI (SK-MEL-28 melanoma)?
Its TGI is greater than 100 µM.

What about the GI50 (SNB-19 CNS) of the same compound?
Its GI50 is 29.8 µM.

And the TGI (SNB-19 CNS)?
Its TGI is greater than 100 µM.

And the GI50 (HT29 colon)?
Its GI50 is 32.5 µM.

And the TGI (HT29 colon)?
Its TGI is greater than 100 µM.

And the GI50 (SK-MEL-5 melanoma)?
Its GI50 is 8.25 µM.

And the TGI (SK-MEL-5 melanoma)?
The TGI was 45.4 µM.

And the GI50 (SF-539 CNS)?
Its GI50 is 24.4 µM.

What about the TGI (SF-539 CNS) of the same compound?
The TGI was greater than 100 µM.

And the GI50 (NCI-H23 lung)?
The GI50 was 10.6 µM.

What about the TGI (NCI-H23 lung) of the same compound?
Its TGI is greater than 100 µM.

And the GI50 (NCI-H460 lung)?
Its GI50 is 28.2 µM.

And the TGI (NCI-H460 lung)?
The TGI was greater than 100 µM.

What about the GI50 (HCT-116 colon) of the same compound?
The GI50 was 17.5 µM.

What about the TGI (HCT-116 colon) of the same compound?
Its TGI is greater than 100 µM.

And the GI50 (786-0 renal)?
Its GI50 is 17.9 µM.

And the TGI (786-0 renal)?
The TGI was 74.6 µM.

What about the GI50 (SK-OV-3 ovarian) of the same compound?
Its GI50 is 34.9 µM.

And the TGI (SK-OV-3 ovarian)?
Its TGI is greater than 100 µM.

And the GI50 (HCT-15 colon)?
Its GI50 is 17 µM.

What about the TGI (HCT-15 colon) of the same compound?
Its TGI is greater than 100 µM.

And the GI50 (OVCAR-3 ovarian)?
Its GI50 is 22.6 µM.

And the TGI (OVCAR-3 ovarian)?
Its TGI is greater than 100 µM.

What about the GI50 (KM12 colon) of the same compound?
The GI50 was 26.9 µM.

What about the TGI (KM12 colon) of the same compound?
Its TGI is greater than 100 µM.

And the GI50 (TK-10 renal)?
Its GI50 is 15.1 µM.

What about the TGI (TK-10 renal) of the same compound?
The TGI was 55 µM.

And the GI50 (UACC-62 melanoma)?
Its GI50 is 6.1 µM.

And the TGI (UACC-62 melanoma)?
The TGI was 65.2 µM.

And the GI50 (SK-MEL-2 melanoma)?
The GI50 was 17.5 µM.

What about the TGI (SK-MEL-2 melanoma) of the same compound?
The TGI was 63.6 µM.
